Assay results as given in patent US20040014972A1, “Arylpiperazine derivatives and their use as psychotropic agents” (priority 2000, published 2004).

melting point	Structure (SMILES)
145 to 146 °C	O=C(O)/C=C/C(=O)O.OC(CCCN1CCN(c2cccc3cccnc23)CC1)c1ccc(F)cc1 (stereo not drawn)
233 to 234 °C	Cl.Cl.O=C(CCCN1CCN(c2cccc3[nH]ccc23)CC1)c1ccc(F)cc1
119 to 120 °C	Cl.Cl.Cl.O.O.O=C(CCCN1CCN(c2cccc3cccnc23)CC1)c1ccc(F)cc1 (hydrate or solvate)
